According to patent publication US20080044805A1, “Biopolymer-Dye Complex and Use as a Bioassay” (STC.UNM, priority 2006, published 2008):

Assays:
[1] = Water solubility of the cyanine dye; type: physicochemical
From the text: For fluorescence of the polymers in solution, J-aggregate fluorescence became prominent for polymers having at least 33 cationic polymer repeat units. The fluorescence of the polymer is subject to very strong “super-quenching” by oppositely charged electron acceptors and energy-transfer quenchers that equals or exceeds that observed for conjugated polyelectrolytes by the same kind of quenchers. […] In exemplary embodiments, a cyanine dye of formula I, below, is used.

[2] = Hyaluronidase activity, scaffold destruction fluorescent assay; type: biochemical; settings: hyaluronic acid substrate; estimated from maximal fluorescence of unreacted mix
Description: Hyaluronidase enzyme (11.3 U of E.C. 3.2.1.35) was mixed with 8 μg of hyaluronic acid in a total volume of 500 μL at 25° C. After 0, 20, 40, 60, 80, 100, 120 and 140 minutes, a portion of the reaction mixture was diluted into 20 μM concentrations of cyanine dye of Formula I dissolved in 20% methanol-80% water mixture dispensed into the wells of a 96 well microplate (Optiplate™-96, Perkin Elmer Life Sciences, Boston, Mass.) to a total volume of 275 μL. Sixty minutes after adding the reaction mixture to the cyanine solution, the fluorescence was measured using a Mithras LB 940 microplate spectrofluorometer (Berthold Instruments, Oak Ridge, Tenn.). The enzymatic reaction volume that was added to the cyanine dye solution represented approximately 364 ng of intact hyaluronic acid that might be present in the complete absence of enzymatic hydrolysis. This amount of hyaluronic was equivalent to the mid-point in the rise of the hyaluronic titration curve in FIG. 23. […] Hyaluronic acid in amounts of 0, 200, 400, 600, 800 and 1000 ng respectively were mixed with 1 U of hyaluronidase in a total volume of 100 μL. […] Based upon maximal fluorescence from reactions in which the enzyme and substrate were mixed but not allowed to react, it was estimated that hyaluronidase activity level reached a plateau between 60 to 80 minutes, representing 50% hydrolysis of the substrate.

water solubility [1] | hydrolysis of the substrate at plateau [2] | Compound
moderate |  | CCN1C(=Cc2sc3ccc(Cl)cc3[n+]2CC)Sc2ccc(Cl)cc21.[I-] [cyanine dye of Formula I]
 | 50% | hyaluronidase
